Paper PMC6362118, “Pharmacophore-guided discovery of CDC25 inhibitors causing cell cycle arrest and tumor regression” (Scientific Reports, 2019)

Tests used:
HeLa cells [1] = test: Cell viability assay on HeLa cells; format: cell-based; details: 48h treatment
Procedure: (§1) 75 Cell culture - Wild-type HeLa and Kyoto HeLa cells stably expressing mCherry-H2B
(§2) 76 were maintained in DMEM+L-Glutamine (Gibco, Life Technologies, USA)
(§3) 77 supplemented with 5% fetal calf serum (FCS) (Gibco) and penicillin-streptomycin (100
78 U/ml - 100 µg/ml) (Gibco). […]
87 Cell viability assays - Compounds viability upon 48h treatment with the compounds was
88 assessed as described 4. Data were plotted with Prism 7® and analyzed by non-linear
89 regression. Comparison of single curve fitting to all data set within an experiment was
90 performed with the extra sum-of-squares F-test to determine P values. […]

CDC25A = biological target: T1, CDC25A (Homo sapiens, UniProt P30304); test: Enzymatic assay (OMFP substrate) on recombinant CDC25A; format: biochemical
T1 construct: GST (pGEX vector) (N); made in house; host or cells: E. coli BL21
T1 sequence (P30304 1-524): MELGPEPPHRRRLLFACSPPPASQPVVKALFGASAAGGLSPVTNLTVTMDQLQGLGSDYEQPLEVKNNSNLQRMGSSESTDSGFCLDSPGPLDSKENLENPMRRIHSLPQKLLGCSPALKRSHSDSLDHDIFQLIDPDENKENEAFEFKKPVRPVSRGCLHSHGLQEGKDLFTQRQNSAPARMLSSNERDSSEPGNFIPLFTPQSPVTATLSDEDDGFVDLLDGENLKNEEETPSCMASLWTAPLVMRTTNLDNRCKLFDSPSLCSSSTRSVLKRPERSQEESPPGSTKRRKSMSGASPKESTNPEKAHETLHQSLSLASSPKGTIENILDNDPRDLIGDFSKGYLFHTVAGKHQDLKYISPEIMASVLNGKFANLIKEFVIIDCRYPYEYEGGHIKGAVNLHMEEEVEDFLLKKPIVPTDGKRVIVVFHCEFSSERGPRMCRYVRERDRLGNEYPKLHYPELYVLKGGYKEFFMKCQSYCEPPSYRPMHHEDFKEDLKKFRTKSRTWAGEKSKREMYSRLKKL
Procedure: 57 UPD compounds were dissolved in DMSO at 10 mM stock concentration and stored in
60 Expression and purification of CDC25 phosphatases - CDC25A (kind gift of I.
61 Hoffmann, Heidelberg, Germany), CDC25B and CDC25C (kind gift of B. Gabrielli,
62 Queensland, Australia) in pGEX were expressed in E. coli BL21 cells and purified on 1
63 ml Glutathione Sepharose 4 Fast Flow columns as described 1.
(§4) 65 Enzymatic assays - CDC25A, CDC25B and CDC25C were appropriately diluted in 10
(§5) 66 mM Tris-HCl pH 8.0, 50 mM NaCl and assayed in 20 mM Tris-HCl pH 8.0, 75 mM
(§6) 67 NaCl, 0.5 mM EGTA, 1 mM DTT, 0.1 mg/ml BSA and defined concentrations of
(§7) 68 compounds. Reactions were started by addition of the substrate OMFP (0.1 mM). Assays
(§8) 69 were carried out at room temperature in duplicate or triplicate using transparent-bottom,
(§9) 70 V-shaped 96 well plates and read at defined intervals on a Molecular Devices
(§10) 71 SpectraMax microplate reader (ex: 490 nm / em: 525 nm). IC50 and kinetic parameters
(§11) 72 calculated from Lineweaver-Burk double-reciprocal plots of the data were obtained using
73 GraphPad Prism software. […]

[2] = set-up: method as in PMID 17970046; details: due to rapid metabolism; cited from earlier work
HeLa cells [3] = test: Time-lapse microscopy of mitosis in synchronized HeLa cells; format: cell-based
Procedure: Cells were grown in 35 mm CellView™ cell culture dishes with glass bottom (# 627870, Greiner-BioOne) at a density of 2.5 × 10^5 cells/ml in a humidified cell incubator maintained at 37 °C and 5% CO2. Cell were viewed by phase contrast microscopy with a 10x objective using an Olympus IX 81 motorized inverted microscope (Olympus, Hamburg, Germany) equipped with external temperature control chamber and CO2 bottle to maintain cells at 37 °C with 5% CO2. Transition through mitosis was documented by acquisition of four frames per hour over a period of 14 h using a CCD camera (Orca AG, Hamamatsu) and cellR® software (Olympus). HeLa-Kyoto cells (mCherry-H2B/EGFP-α-tubulin) were visualized by fluorescence microscopy with an Olympus IX 81 microscope using a 10x objective and selecting Ex. = 492 ± 18 nm/Em. = 535 ± 50 nm for the green channel and Ex. = 572 ± 23 nm/Em. = 645 ± 75 nm for the red channel.

HeLa cells [4] = test: Flow cytometric analysis of cell cycle progression (DNA content) in HeLa cells; format: cell-based
Procedure: Reactions were started by addition of the substrate OMFP (0.1 mM). Assays 69 were carried out at room temperature in duplicate or triplicate using transparent-bottom, 70 V-shaped 96 well plates and read at defined intervals on a Molecular Devices 71 SpectraMax microplate reader (ex: 490 nm / em: 525 nm). IC50 and kinetic parameters 72 calculated from Lineweaver-Burk double-reciprocal plots of the data were obtained using 73 GraphPad Prism software. 74 75 Cell culture - Wild-type HeLa and Kyoto HeLa cells stably expressing mCherry-H2B 76 were maintained in DMEM+L-Glutamine (Gibco, Life Technologies, USA) 77 supplemented with 5% fetal calf serum (FCS) (Gibco) and penicillin-streptomycin (100 […] A549 and Colo741 were grown and maintained like HeLa 79 cells but with 10% FCS. HCT116 were maintained in McCoy's medium supplemented 80 with 10% FCS and penicillin-streptomycin. U2OS-Tet-OFF cells expressing HA-CDC25 81 were grown and maintained in DMEM+L-Glutamine, 10% Tet-free FCS and penicillin- 82 streptomycin in the presence or the absence of 4 μg/ml tetracycline (Sigma, T7660). 83 84 Cell synchronization - Cell synchronization was performed by double thymidine block- 85 release protocol 2 or nocodazole treatment 3 and verified by flow cytometry. 86 87 Cell viability assays - Compounds viability upon 48h treatment with the compounds was 88 assessed as described 4. Data were plotted with Prism 7® and analyzed by non-linear 89 regression. Comparison of single curve fitting to all data set within an experiment was 90 performed with the extra sum-of-squares F-test to determine P values. 91 92 Western blotting - Cell lysis and immunoblot analysis were performed as previously 93 described 5. […] Cells were washed with PBS, resuspended […] To 100 quantify phosphorylation of CDK1 at Tyr15 and H2AX at S139, cells were harvested and 101 examined as described 6. Samples were measured on an AttuneTM NxT Cytometer 102 (ThermoFisher Scientific, Carlsbad, CA, USA) and data were analyzed with FlowJo® 103 software v10 (FlowJo, LLC, Ashland, OR, USA). 104 105 Real Time qRT-PCR - Organoids were lysed in Tri-Reagent (Sigma) as previously 106 described 7 and total RNA was isolated as described by manufacturer's instructions. For […] 108 High Fidelity cDNA Synthesis kit (Roche). Real-time quantitative PCR reactions were 109 performed in three independent biological replicates, each with technical triplicate, using 110 the Applied Biosystems SYBR Green Kit and monitored by the ABI Prism 7900HT 111 system (Applied Biosystem). The following primers were used: 112 Lgr5: Forward [NT] and Reverse 5'- […] 114 Lysozyme: Forward [NT] and Reverse 5'- 115 [NT]3' 116 Cryptdin: Forward [NT] and Reverse 5'- 117 [NT]-binding protein (TBP): Forward [NT] and 119 Reverse [NT] 120 […] 122 amplification curves and the melting temperature analysis of the final amplification […] 4

[5] = system: U2OS Tet-OFF cells expressing HA-CDC25A; test: Cell viability of U2OS Tet-OFF cells overexpressing HA-CDC25A; format: cell-based; details: grown in the absence of tetracycline (HA-CDC25A induced)
Procedure: as §4, §5, §6, §7, §8, §9, §10, §11
73 GraphPad Prism software.
as §1, §2, §3
78 U/ml - 100 µg/ml) (Gibco). A549 and Colo741 were grown and maintained like HeLa
79 cells but with 10% FCS. HCT116 were maintained in McCoy’s medium supplemented
80 with 10% FCS and penicillin-streptomycin. U2OS-Tet-OFF cells expressing HA-CDC25
81 were grown and maintained in DMEM+L-Glutamine, 10% Tet-free FCS and penicillin- […]
88 assessed as described 4. Data were plotted with Prism 7® and analyzed by non-linear […]

| Compound | IC50 (HeLa cells [1]) [nM] | mode of action (reversibility) (CDC25A; pre-incubation at ~3x IC50 (5 μM UPDs, 2 µM NSC663284), 10-fold dilution) | antitumor activity in mice [2] | IC50 (HeLa cells [1]; Homo sapiens) [nM] | execution of mitosis (time-lapse) (HeLa cells [3]; HeLa, 10 μM added 5 h upon release from 2x thymidine block, monitored 14 h) | execution of mitosis at low dose (time-lapse) (HeLa cells [3]; synchronized HeLa Kyoto cells (mCherry-H2B, GFP-α-tubulin), 5 μM) | effect on cell cycle distribution (DNA content) (HeLa cells [4]; asynchronous HeLa cells, 10 μM, 15 h) | effect on the G2/M transition (HeLa cells [4]; double-thymidine synchronized HeLa, 10 μM added 5 h upon release, analysed 12 h post-release) | remaining activity at 20 µM (CDC25A; compound 20 µM, relative to DMSO control, read-out: % remaining activity ± SD (Table S2, second round of selection)) [%] | sensitivity of CDC25A overexpressing cells (viability) [5] |
| --- | --- | --- | --- | --- | --- | --- | --- | --- | --- | --- |
| O=C1C(Cl)=C(NCCN2CCOCC2)C(=O)c2ncccc21 [NSC-663284, reference compound] | 2570 | irreversible | minimal antitumor activity | – | – | – | – | – | – | – |
| Cc1c(O)ccc(C2=CC(=O)c3cccc(O)c3C2=O)c1O [UPD-787, 8-hydroxy-2-(2,4-dihydroxy-3-methylphenyl) naphthalene-1,4-dione] | – | – | – | 900 | could not complete mitotic transition and died before reaching G1 | failed attempt to round up and execute mitosis, which was followed by membrane blebbing and death | accumulation of cells at G2/M | accretion of the G2/M peak | 0.1 ± 0.3 | remained sensitive |
